Data on two compounds can be found in patent publication US20080161422A1, “Methods and Compositions for the Treatment of Lipid-Associated Disorders” (priority 2005, published 2008).

“Also recorded” adds a separate entry of the source.

Assay [1] deals with T1, niacin receptor (Homo sapiens, UniProt Q8TDS4). In words: Binding to the niacin receptor.
Assay [2] deals with T1, niacin receptor. Put plainly: MAP kinase ELISA (phosphoERK1/2) in CHO cells expressing the human niacin receptor. The settings on record: compared to niacin. A general note: In an ELISA, binding on a coated surface is turned into a signal by an enzyme label.
Another assay concerns the target T2, mouse niacin receptor (Mus musculus, UniProt Q9EP66).
T2 construct: expressed in transfected cells; host or cells: CHO cells
Put plainly: MAP kinase ELISA (phosphoERK1/2) in CHO cells expressing the mouse niacin receptor. The settings on record: compared to niacin. It counts as cell-based. As for the experimental part:
A kit from Biosource (phosphoERK1/2 pT185pY187 ELISA, Catalog #KHO-0091) was used according to the following protocol.
The cells were serum-starved overnight prior to stimulating the cells with compound.
A. Compounds were dissolved in DMSO. […] PMA (100 ng/ml) was used as a positive control. B. Cell dishes were taken out of the incubator and placed on a rocker set to gentle rocking (set speed at 4). Compound was carefully added and cells were returned to the incubator to incubate for 5 min. At 4.5 min, the medium was aspirated from dishes in the order that the compound was added. Then 2 ml cold PBS was added and excess medium was removed by gentle swirling. The PBS was aspirated and 1 ml of PBS was added (1 ml for confluent 6 cm dish).
A. Cells were scraped from dish with a rubber policeman and transferred to a microfuge tube, then centrifuged at 3000 rpm at 4° C. for 5 minutes. B. The PBS was aspirated and cell pellet lysed in Cell Extraction Buffer (0.1% SDS) (250-300 μl for confluent 6 cm dish) for 30 min. on ice with vortexing at 10 min intervals. C. The mixture was then centrifuged at max speed (16,000×G) for 15 min. at 4° C. D. Clarified lysates were transferred to new microfuge tubes and protein concentration measure. […]
A. All reagents were at room temperature and mixed before use. […] The number of 8 well strips needed for assay was determined and bag was sealed and returned to 4° C. […]

Assay [3] deals with women suffering from painful menstrual cramps. The settings on record: 80 women; 100 mg niacin twice daily, then every 2 to 3 hours during heavy cramps; cited from earlier work.

T1 sequence (Q8TDS4 whole entry): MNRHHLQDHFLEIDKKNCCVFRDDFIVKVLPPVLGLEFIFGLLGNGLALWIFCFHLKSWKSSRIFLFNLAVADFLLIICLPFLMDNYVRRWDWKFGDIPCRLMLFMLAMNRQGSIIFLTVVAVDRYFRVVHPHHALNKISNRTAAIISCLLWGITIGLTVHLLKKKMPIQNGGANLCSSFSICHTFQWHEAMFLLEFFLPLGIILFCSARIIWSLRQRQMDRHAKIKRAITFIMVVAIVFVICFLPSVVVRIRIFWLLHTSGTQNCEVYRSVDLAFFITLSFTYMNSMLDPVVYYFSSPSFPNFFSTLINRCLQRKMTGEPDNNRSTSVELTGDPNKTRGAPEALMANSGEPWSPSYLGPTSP
T2 sequence (Q9EP66 whole entry): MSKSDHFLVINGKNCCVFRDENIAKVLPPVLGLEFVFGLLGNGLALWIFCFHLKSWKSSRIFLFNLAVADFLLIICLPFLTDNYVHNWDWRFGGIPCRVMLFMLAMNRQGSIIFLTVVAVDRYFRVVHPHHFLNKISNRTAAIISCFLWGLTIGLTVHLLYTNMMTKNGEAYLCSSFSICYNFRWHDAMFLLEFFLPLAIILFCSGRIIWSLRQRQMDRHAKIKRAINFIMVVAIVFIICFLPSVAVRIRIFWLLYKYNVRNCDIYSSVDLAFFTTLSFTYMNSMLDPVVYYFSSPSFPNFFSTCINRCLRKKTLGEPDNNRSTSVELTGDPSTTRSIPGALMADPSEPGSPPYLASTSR

As to `c1cncc(-c2nn[nH]n2)c1` [Compound 12], the “binding to the niacin receptor” value on niacin receptor [1] is listed as “binds to the niacin receptor”. Further, the MAP kinase activation entry at niacin receptor [2] and on mouse niacin receptor was “closely matches the profile of niacin; also recorded: behaves like niacin in a MAP kinase assay” each time.

Take `O=C(O)c1cccnc1` [niacin, nicotinic acid]: the “subjects experiencing significant relief” value in assay [3] is reported as “About 90%”.
